Measured values published in patent publication EP0714912B1, “GMP-140 ligand” (THE BOARD OF REGENTS OF THE UNIVERSITY OF OKLAHOMA, priority 1990, dated 1992).

Tests used:
[1] = test system: immobilized GMP-140; assay: ELISA (avidin detection) of binding of biotinylated monoclonal antibodies G1, G2, G3 to immobilized GMP-140 in presence of soluble peptide; set-up: species or system human; details: for % Binding of Biotinylated MAbs G1: peptide 1.5 mM added to biotinylated mAb G1 (2.5 micrograms/ml) before addition to immobilized GMP-140; for % Binding of Biotinylated MAbs G2: peptide 1.5 mM added to biotinylated mAb G2 (2.5 micrograms/ml) before addition to immobilized GMP-140; for % Binding of Biotinylated MAbs G3: peptide 1.5 mM added to biotinylated mAb G3 (2.5 micrograms/ml) before addition to immobilized GMP-140
Protocol: Based on competitive ELISAs with the purified protein, G1, G2, and G3 each recognize distinct or only partially overlapping epitopes. 1.5 mM peptide was added to biotinylated mAb at a concentration of 2.5 micrograms/ml, which were then added to the wells containing GMP-140, as described in example 1. Binding was measured by an ELISA with an avidin detection system.
The monoclonal antibodies were biotinylated as follows: to 0.5 ml of purified IgG antibody (1 mg/ml in PBS, pH 7.4) was added 50 µl of 3.2 mM N-hydroxysuccinimide biotin in dimethyl sulfoxide and 50 µl of 1 M NaHCO3. After a 2 hour incubation at room temperature in the dark, the reaction was stopped with 50 µl of 1 M NH4Cl. The biotinylated antibody was then separated from other components by gel filtration on a PD-10 column equilibrated in PBS. The ELISA was performed as follows; all steps were performed at room temperature.
Biotinylated antibody (2.5 µg/ml) with or without 1.5 mM peptide was incubated with wells coated with GMP-140 as described in example 1. After a 2 hour incubation, the antibody was removed, the wells were washed, and 0.1 ml of horseradish peroxidase-conjugated stepavidin (Pierce), diluted 1:1,000 in HBSS/HSA, was added for 30 min. The wells were then washed and 0.1 ml of peroxidase substrate (Pierce) was added for 15 min. The color reaction was read at 405 nm.

[2] = test system: neutrophils; assay: Specific binding of [125I]GMP-140 to neutrophils (enzyme-treated cells or with competitors); set-up: species or system human; details: 6.5 µM of conjugate, 65 µM of oligosaccharide; coupled to bovine serum albumin at about 10:1
[3] = test system: immobilized GMP-140; assay: Neutrophil adhesion to purified GMP-140 immobilized on plastic wells (myeloperoxidase read-out); format: cell-based, human; details: for inhibition of binding of neutrophils to immobilized GMP-140, dependence on concentration: 0.1 mM to 1.5 mM peptide, Figure 2; for inhibition of neutrophil adhesion to immobilized GMP-140 by peptides: peptide screen, result in words
From the text: Peptides were screened for their ability to inhibit neutrophil adhesion to purified GMP-140 immobilized on plastic wells, using the assay described by Geng, et al., Nature 343, 757-760 (1990).
Human neutrophils are isolated from heparinized whole blood by density gradient centrifugation on Mono-Poly resolving media, Flow Laboratories. Neutrophil suspensions are greater than 98% pure and greater than 95% viable by trypan blue exclusion. For adhesion assays, neutrophils are suspended at a concentration of 2 x 10^6 cells/ml in Hanks' balanced salt solution containing 1.26 mM Ca^2+ and 0.81 mM Mg^2+ (HBSS, Gibco) with 5 mg/ml human serum albumin (HBSS/HSA). Adhesion assays are conducted in triplicate in 96-well microtiter plates, Corning, incubated at 4°C overnight with 50 microliters of various protein solutions.
GMP-140 is plated at 5 micrograms/ml and the control proteins: human serum albumin (Alb), platelet glycoprotein IIb/IIIa (IIb), von Willebrand factor (vWF), fibrinogen (FIB), thrombomodulin (TM), gelatin (GEL) or human serum (HS), are added at 50 micrograms/ml. All wells are blocked for 2 h at 22°C with 300 microliters HBSS containing 10 mg/ml HSA, then washed three times with HBSS containing 0.1% Tween-20 and once with HBSS. Cells (2 x 10^5 per well were added to the wells and incubated at 22°C for 20 min. The wells were then filled with HBSS/HSA, sealed with acetate tape (Dynatech), and centrifuged inverted at 150 g for 5 min. After discarding nonadherent cells and supernates, the contents of each well are solubilized with 200 microliters 0.5% hexadecyltrimethylammonium bromide, Sigma, in 50 mM potassium phosphate, pH 6.0, and assayed for myeloperoxidase activity, Ley, et al., Blood 73, 1324-1330 (1989). The number of cells bound was derived from a standard curve of myeloperoxidase activity versus numbers of cells. Under all assay conditions, the cells released less than 5% of total myeloperoxidase and lactate dehydrogenase. Results are presented in Table I. 100% adhesion is that seen in the presence of the C-terminal peptide (amino acid residues 761-777 of GMP-140) as a negative control; this value is the same as controls in which neither peptide nor antibody is added to the cells. Inhibition is read as a lower percent adhesion, so that a value of 5% means that 95% of the specific adhesion was inhibited.
Peptides from the lectin-like domain of GMP-140 were assayed for their ability to inhibit adhesion of neutrophils to immobilized GMP-140 in the assay described in example 1. Concentrations tested ranged from 0.1 mM to 1.5 mM.

[4] = test system: neutrophils; assay: Adhesion of neutrophils to microtiter wells coated with lectin peptide 19-34-KLH conjugate or GMP-140; format: cell-based, human; details: peptide 1.5 mM; Figure 3
Protocol: GMP-140 is plated at 5 micrograms/ml and the control proteins: human serum albumin (Alb), platelet glycoprotein IIb/IIIa (IIb), von Willebrand factor (vWF), fibrinogen (FIB), thrombomodulin (TM), gelatin (GEL) or human serum (HS), are added at 50 micrograms/ml. All wells are blocked for 2 h at 22°C with 300 microliters HBSS containing 10 mg/ml HSA, then washed three times with HBSS containing 0.1% Tween-20 and once with HBSS. […] Inhibition is read as a lower percent adhesion, so that a value of 5% means that 95% of the specific adhesion was inhibited.
Lectin peptide 19-34 was conjugated to the carrier protein keyhole limpet hemocyanin by its N-terminal cysteine by standard procedures such as the commercial Imject kit from Pierce Chemicals. This peptide-KLH conjugate was then tested in the assay described in example 1 and the numbers of cells bound determined. […]

Substance | % Binding of Biotinylated MAbs G1 [1] [%] | % Binding of Biotinylated MAbs G2 [1] [%] | % Binding of Biotinylated MAbs G3 [1] [%] | also measured
EGF 145-158: synthetic peptide, amino acids 145-158 of the EGF domain of GMP-140 (YPGFYGPECEYVRE; UniProt P16109 186-199, looked up, fragment) | 94 | 92 | 108 | –
LECTIN 91-108: synthetic peptide, amino acids 91-108 of the lectin domain of GMP-140 (VEIYIKSPSAPGKWNDEH; UniProt P16109 132-149, looked up, fragment) | 97 | 93 | 96 | –
sialyl Le^x | – | – | – | inhibition of GMP-140 binding by multivalent neoglycoconjugates [2]: failed to inhibit binding
TRANSMEMBRANE 755-761: control peptide from the transmembrane region of GMP-140, amino acids 755-761 (RKRFRQK; UniProt P16109 796-802, looked up, fragment) | 100 | 119 | 104 | –
amino acids 23-30: peptide from the GMP-140 lectin domain, amino acids 23-30 (YTDLVAIQ; UniProt P16109 64-71, looked up, fragment) | – | – | – | inhibition of binding of neutrophils to immobilized GMP-140, dependence on concentration [3]: inhibited binding in a dose-dependent manner
LECTIN/EGF 118-126: synthetic peptide, amino acids 118-126 of GMP-140 (lectin/EGF domains) (YTASCQDMS; UniProt P16109 159-167, looked up, fragment) | 92 | 92 | 104 | –
LECTIN 19-30: synthetic peptide, amino acids 19-30 of the lectin domain of GMP-140 (CQNRYTDLVAIQ; UniProt P16109 60-71, looked up, fragment) | – | – | 54 | –
amino acids 54-63: peptide from the GMP-140 lectin domain, amino acids 54-63 (RKNNKTWTWV; UniProt P16109 95-104, looked up, fragment) | – | – | – | inhibition of binding of neutrophils to immobilized GMP-140, dependence on concentration [3]: inhibited binding in a dose-dependent manner
amino acids 66-78: overlapping peptide of amino acids 66-78 of the GMP-140 lectin domain (KKALTNEAENWAD; UniProt P16109 107-119, looked up, fragment) | – | – | – | inhibition of binding of neutrophils to immobilized GMP-140, dependence on concentration [3]: inhibited binding in a dose-dependent manner; inhibition of neutrophil adhesion to immobilized GMP-140 by peptides [3]: inhibited adhesion; inhibition of neutrophil adhesion to immobilized GMP-140 by peptides ([3]; listed as amino acids 66 to 78): very active
REPEATS 544-556: control peptide from one of the consensus repeats of GMP-140, amino acids 544-556 | 107 | 96 | 111 | –
LECTIN 54-72: synthetic peptide, amino acids 54-72 of the lectin domain of GMP-140 (RKNNKTWTWVGTKKALTNE; UniProt P16109 95-113, looked up, fragment) | 106 | 125 | 104 | inhibition of neutrophil adhesion to immobilized GMP-140 by peptides [3]: inhibited adhesion
LECTIN 19-34: synthetic peptide, amino acids 19-34 of the lectin domain of GMP-140 (CQNRYTDLVAIQNKNE; UniProt P16109 60-75, looked up, fragment) | 23 | 26 | 24 | inhibition of neutrophil adhesion to immobilized GMP-140 by peptides [3]: inhibited adhesion; competition by fluid-phase competitor for neutrophil adhesion to immobilized lectin peptide 19-34-KLH conjugate [4]: compete for adhesion
EGF 128-132: synthetic peptide, amino acids 128-132 of the EGF domain of GMP-140 (SKQGE; UniProt P16109 169-173, looked up, fragment) | 107 | 92 | 104 | –
LECTIN 110-116: synthetic peptide, amino acids 110-116 of the lectin domain of GMP-140 (LKKKHAL; UniProt P16109 151-157, looked up, fragment) | 98 | 100 | 108 | –
C-TERMINUS 761-777: C-terminal peptide (amino acid residues 761-777 of GMP-140) as a negative control (KDDGKCPLNPHSHLGTY; UniProt P16109 802-818, looked up, fragment) [reference compound] | 100 | 100 | 100 | –
LECTIN 73-89: synthetic peptide, amino acids 73-89 of the lectin domain of GMP-140 (AENWADNEPNNKRNNED; UniProt P16109 114-130, looked up, fragment) | 95 | 99 | 94 | inhibition of neutrophil adhesion to immobilized GMP-140 by peptides [3]: inhibited adhesion
amino acids 73-83: peptide from the GMP-140 lectin domain, amino acids 73-83 (AENWADNEPNN; UniProt P16109 114-124, looked up, fragment) | – | – | – | inhibition of binding of neutrophils to immobilized GMP-140, dependence on concentration [3]: inhibited binding in a dose-dependent manner
EGF 134-141: synthetic peptide, amino acids 134-141 of the EGF domain of GMP-140 (LETIGNYT; UniProt P16109 175-182, looked up, fragment) | 97 | 104 | 109 | –
